Measured values as given in US8580526B2, “Methods of using GPR119 receptor to identify compounds which stimulate glucose-dependent insulinotropic peptide secretion” (Arena Pharmaceuticals, Inc., priority 2006, dated 2013).

Assays:
GPR119 [1] = biological target: T1, GPR119 (Mus musculus, UniProt Q7TQP3); test: Effect of oral GPR119 agonist on blood GIP level in GPR119-deficient (knockout) mice compared to wild-type mice, rodent GIP ELISA; assay type: in vivo, GPR119-deficient male mice and wild-type littermates; set-up: endogenous in cells; host or cells: whole animal: GPR119-deficient male mice and wild-type littermates, oral dosing; settings: 20 mg/kg per orally, FIG. 2A
T1 sequence (Q7TQP3 1-335): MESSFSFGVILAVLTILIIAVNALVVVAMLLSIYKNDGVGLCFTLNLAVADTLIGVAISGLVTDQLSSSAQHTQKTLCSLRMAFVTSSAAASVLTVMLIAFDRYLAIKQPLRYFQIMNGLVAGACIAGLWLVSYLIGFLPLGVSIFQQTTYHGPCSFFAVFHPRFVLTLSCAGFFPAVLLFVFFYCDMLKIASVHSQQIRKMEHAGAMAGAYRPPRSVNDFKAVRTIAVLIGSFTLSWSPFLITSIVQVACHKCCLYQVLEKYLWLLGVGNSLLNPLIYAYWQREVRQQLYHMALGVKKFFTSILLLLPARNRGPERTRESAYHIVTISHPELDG
Experimental: A. GPR119-deficient male mice and wild-type littermates were fasted for 18 hours. Mice were administered per orally with vehicle (PET; 80% PEG400, 10% ethanol, 10% Tween80) or with a GPR119 agonist in accordance with the present invention (Compound 1; (2-Fluoro-4-methanesulfonyl-phenyl)-{6-[4-(3-isopropyl-[1,2,4]oxadiazol-5-yl)-piperidin-1-yl]-5-nitro-pyrimidin-4-yl}-amine) at 20 mg/kg, as indicated (n=5). Thirty minutes after treatment, blood (100 microliter) was collected via retro orbital vein of the eye (time 0) followed by a glucose bolus at 3 g/kg (per orally). Five minutes after I delivering glucose, another blood sample (100 microliter) was collected (time 5 minutes). Plasma were collected after centrifugation and GIP levels were determined by using a rodent GIP ELISA kit purchased from Linco Research Laboratory [Rat/Mouse Gastric Inhibitory Polypeptide (Total) ELISA Catalog #EZRMGIP-55K], following instructions provided by the supplier. […]
B. GPR119-deficient male mice and wild-type littermates were fasted for 18 hours. […] Plasma were collected after centrifugation and GIP levels were determined by using a rodent GIP ELISA kit purchased from Linco Research Laboratory [Rat/Mouse Gastric Inhibitory Polypeptide (Total) ELISA Catalog #EZRMGIP-55K], following instructions provided by the supplier. […]

GPR119 [2] = biological target: T1, GPR119; test: Pharmacodynamic analysis of effect of oral GPR119 agonist on blood (plasma total) GIP level in wild-type mice, rodent GIP ELISA; assay type: in vivo, C57blk/6 male mice; set-up: Effect of Administration of GPR119 Agonist on Blood GIP Level in Wild-Type Mice; endogenous in cells; host or cells: whole animal: C57blk/6 male mice, oral dosing; settings: 20 mg/kg per orally, 30 min before glucose bolus 3 g/kg, FIG. 1A
Experimental: A. C57blk/6 male mice were fasted for 18 hours, and randomly assigned into fourteen groups with n=6 for each group. Mice were administered per orally with vehicle (PET; 80% PEG400, 10% ethanol, 10% Tween80) or with a GPR119 agonist in accordance with the present invention (Compound 1; (2-Fluoro-4-methanesulfonyl-phenyl)-{6-[4-(3-isopropyl-1,2,4]oxadiazol-5-yl)-piperidin-1-yl]-5-nitro-pyrimidin-4-yl}-amine) at 20 mg/kg, as indicated in FIG. 1A. Thirty minutes after treatment, a glucose bolus at 3 g/kg were delivered per orally, and plasma were collected at 0 (no glucose bolus), 2, 5, 10, 20, 40 and 60 minutes after glucose bolus. Plasma GIP levels were determined by using a rodent GIP ELISA kit purchased from Linco Research Laboratory [Rat/Mouse Gastric Inhibitory Polypeptide (Total) ELISA Catalog #EZRMGIP-55K], following instructions provided by the supplier. […]
B. C57blk/6 male mice were fasted for 18 hours, and randomly assigned into fourteen groups with n=6 for each group. […] Plasma GIP levels were determined by using a rodent GIP ELISA kit purchased from Linco Research Laboratory [Rat/Mouse Gastric Inhibitory Polypeptide (Total) ELISA Catalog #EZRMGIP-55K], following instructions provided by the supplier. […] Mean values of GIP concentration were calculated based on results with six mice in each group and shown as mean±SEM. […]

In the case of `CC(C)c1noc(C2CCN(c3ncnc(Nc4ccc(S(C)(=O)=O)cc4F)c3[N+](=O)[O-])CC2)n1` [Compound 1, (2-Fluoro-4-methanesulfonyl-phenyl)-{6-[4-(3-isopropyl-[1,2,4]oxadiazol-5-yl)-piperidin-1-yl]-5-nitro-pyrimidin-4-yl}-amine], the “dependence on GPR119 of the increase of glucose-independent and glucose-dependent level of GIP in the blood” value (GPR119 [1]; GPR119-deficient vs wild-type mice, time 0 and 5 min after glucose bolus 3 g/kg) is reported as “functional GPR119 receptor was necessary”, the “plasma total GIP in wild-type mice” value (GPR119 [1]; blood 30 min after treatment (time 0) and 5 min after glucose bolus 3 g/kg) is reported as “stimulated plasma total GIP in the wild-type mice” and the “glucose-dependent and glucose-independent level of GIP in the blood” value (GPR119 [2]; plasma at 0 (no glucose bolus) to 60 min) is reported as “increased both a glucose-dependent and a glucose-independent level of GIP”. The “plasma total GIP” value (GPR119 [2]; plasma at 0 (no glucose bolus), 2, 5, 10, 20, 40, 60 min, vs vehicle PET) was “stimulated plasma total GIP”.
